Measured values taken from US10023841B2, “Methods and compositions for treating breast cancer with dendritic cell vaccines” (Baylor Research Institute, priority 2014, dated 2018).

System: TAK1
Assay: Phosphorylated TAK1 (FACS) in monocytes or mDCs
Type: cell-based, human
Conditions: monocytes; 10 ng/ml TGF-β1 for 5-90 minutes

TGF-β1: soluble TGF-β1 used to treat monocytes
phosphorylation of TAK1: induce phosphorylation of TAK1 as early as 15 minutes
